# Source: ChEMBL document CHEMBL4483862, “Open-source discovery of chemical leads for next-generation chemoprotective antimalarials” (2018)
# System: Plasmodium berghei
# Experiment: Luciferase/luciferin-expressing antifolate-resistant parasites were used to infect a culture of HepG2 cells that were pre-incubated with compounds. Infected hepatocytes emit light due to the luciferase reaction. Assay results are presented as the percent inhibition of light emission compared to control. […]
# Type: functional
# Conditions: sporozoite; for IC90: read-out: LUCIFERASE INFECTION ASSAY - IC90
SMILES,IC90 [µM],further results
CCN(C(S)=Nc1cccnc1)c1cccc2ccccc12,> 10,"IC50 (HEPG2TOX_HILL_SLOPE 1.34, HEPG2TOX_R_SQUARED 0.711, PBLUC_HILL_SLOPE 4.21, PBLUC_R_SQUARED 0.184, read-out: LUCIFERASE INFECTION ASSAY - IC50): 7600 nM"
COc1ccc(CC(N)c2csc(NC(=O)c3cc(C(C)(C)C)nn3Cc3ccccc3)n2)cc1 (configuration not stated),5.64,"IC50 (HEPG2TOX_HILL_SLOPE 1.31, HEPG2TOX_R_SQUARED 0.716, PBLUC_HILL_SLOPE 7.57, PBLUC_R_SQUARED 0.705, read-out: LUCIFERASE INFECTION ASSAY - IC50): 4220 nM"
CN(C)CCNC(=O)c1cccc(-c2cnc3ccc(-c4cccc(NS(C)(=O)=O)c4)nn23)c1,1.3,"IC50 (HEPG2TOX_HILL_SLOPE 1.31, HEPG2TOX_R_SQUARED 0.978, PBLUC_HILL_SLOPE 2.06, PBLUC_R_SQUARED 0.888, read-out: LUCIFERASE INFECTION ASSAY - IC50): 447 nM"
COc1ccc(-c2nc(C(=O)NC3CC3)cc3c2[nH]c2ccccc23)cc1,7.59,"IC50 (HEPG2TOX_HILL_SLOPE 1.32, HEPG2TOX_R_SQUARED 0.984, PBLUC_HILL_SLOPE 2.25, PBLUC_R_SQUARED 0.475, read-out: LUCIFERASE INFECTION ASSAY - IC50): 2850 nM"
COc1cc(CSc2nc3ccccc3c(=O)n2C(C)C)ccc1OC(F)F,3.99,"IC50 (HEPG2TOX_HILL_SLOPE 1.32, HEPG2TOX_R_SQUARED 0.932, PBLUC_HILL_SLOPE 1.38, PBLUC_R_SQUARED 0.834, read-out: LUCIFERASE INFECTION ASSAY - IC50): 810 nM"
COc1cc(C(=O)c2c(N)c(C#N)cn3c2nc2ccccc23)cc(OC)c1OC,1.04,"IC50 (HEPG2TOX_HILL_SLOPE 1.34, 0.970, HEPG2TOX_R_SQUARED 0.842, 0.883, PBLUC_HILL_SLOPE 1.49, PBLUC_R_SQUARED 0.764, read-out: LUCIFERASE INFECTION ASSAY - IC50): 237 nM"
Cn1c(NCC2CC2)nc2cnc(Nc3cccc(Oc4ccccc4)c3)cc21,3.77,"IC50 (HEPG2TOX_HILL_SLOPE 1.32, HEPG2TOX_R_SQUARED 0.983, PBLUC_HILL_SLOPE 3.67, PBLUC_R_SQUARED 0.52, read-out: LUCIFERASE INFECTION ASSAY - IC50): 2070 nM"
Cc1cc(C(=O)COc2ccccc2C(N)=O)c(C)n1C(C)c1ccccc1 (configuration not stated),> 10,"IC50 (HEPG2TOX_HILL_SLOPE 1.33, HEPG2TOX_R_SQUARED 0.859, PBLUC_HILL_SLOPE 2.23, PBLUC_R_SQUARED 0.779, read-out: LUCIFERASE INFECTION ASSAY - IC50): 4550 nM"
CC(C)c1ccc(NC(=O)C2=COC3=NC(=O)N(Cc4cccc(C#N)c4)CCN23)cc1,1.27,"IC50 (HEPG2TOX_HILL_SLOPE 1.33, HEPG2TOX_R_SQUARED 0.794, PBLUC_HILL_SLOPE 15.4, PBLUC_R_SQUARED 0.591, read-out: LUCIFERASE INFECTION ASSAY - IC50): 1100 nM"
COc1ccc(CN=C2NN=C(c3cc4ccccc4o3)CS2)cc1,0.318,"IC50 (HEPG2TOX_HILL_SLOPE 1.33, HEPG2TOX_R_SQUARED 0.982, PBLUC_HILL_SLOPE 1.63, PBLUC_R_SQUARED 0.322, read-out: LUCIFERASE INFECTION ASSAY - IC50): 82.9 nM"
COc1ccc(-c2ccc3nnc(-c4ccccc4)n3c2)cc1,5.12,"IC50 (HEPG2TOX_HILL_SLOPE 1.32, HEPG2TOX_R_SQUARED 0.91, PBLUC_HILL_SLOPE 2.27, PBLUC_R_SQUARED 0.548, read-out: LUCIFERASE INFECTION ASSAY - IC50): 1940 nM"
Cc1cc(C(=O)OCC(=O)NC(C)c2ccccc2)c(C)n1-c1ccccc1 (configuration not stated),> 10,"IC50 (HEPG2TOX_HILL_SLOPE 1.33, HEPG2TOX_R_SQUARED 0.976, PBLUC_HILL_SLOPE 3.52, PBLUC_R_SQUARED 0.43, read-out: LUCIFERASE INFECTION ASSAY - IC50): 7390 nM"
CCOc1cccc(-c2cn3c(-c4ccc(C(=O)NC5CC5)cc4)cnc3cn2)c1,8.02,"IC50 (HEPG2TOX_HILL_SLOPE 1.3, HEPG2TOX_R_SQUARED 0.854, PBLUC_HILL_SLOPE 1.74, PBLUC_R_SQUARED 0.806, read-out: LUCIFERASE INFECTION ASSAY - IC50): 2270 nM"
CC(C)n1ncc2c1N=C(N(C)C)N(c1ccccc1)C2c1ccc(Cl)cc1 (configuration not stated),> 10,"IC50 (HEPG2TOX_HILL_SLOPE 1.3, HEPG2TOX_R_SQUARED 0.392, read-out: LUCIFERASE INFECTION ASSAY - IC50): > 10000 nM"
O=C(NC(CN1CCCC1)c1ccccc1)c1ccc(N2CCCC2=O)cc1 (configuration not stated),> 10,"IC50 (HEPG2TOX_HILL_SLOPE 1.34, HEPG2TOX_R_SQUARED 0.227, PBLUC_HILL_SLOPE 0.905, PBLUC_R_SQUARED 0.0409, read-out: LUCIFERASE INFECTION ASSAY - IC50): > 10000 nM"
CCOC(=O)c1oc2ccc(Br)cc2c1CSc1nnc(-c2cccs2)n1Cc1ccccc1,> 10,"IC50 (HEPG2TOX_HILL_SLOPE 1.32, HEPG2TOX_R_SQUARED 0.694, read-out: LUCIFERASE INFECTION ASSAY - IC50): > 10000 nM"

SMILES,IC90 [µM],further results
CC(Oc1ccc(C#N)cc1)C(=O)Nc1nc(-c2ccccn2)cs1 (configuration not stated),3.36,"IC50 (HEPG2TOX_HILL_SLOPE 1.33, HEPG2TOX_R_SQUARED 0.927, PBLUC_HILL_SLOPE 145, PBLUC_R_SQUARED 0.223, read-out: LUCIFERASE INFECTION ASSAY - IC50): 3310 nM"
CCCc1cc(=O)n2ncc(-c3ccc(Cl)cc3)c2[nH]1,3.65,"IC50 (HEPG2TOX_HILL_SLOPE 1.31, HEPG2TOX_R_SQUARED 0.875, PBLUC_HILL_SLOPE 1.68, PBLUC_R_SQUARED 0.622, read-out: LUCIFERASE INFECTION ASSAY - IC50): 989 nM"
CCOC(=O)c1[nH]c(C)c(C(=O)/C=C/c2c(C)nn(-c3ccc(F)cc3)c2Cl)c1C,0.643,"IC50 (HEPG2TOX_HILL_SLOPE 1.33, HEPG2TOX_R_SQUARED 0.905, PBLUC_HILL_SLOPE 0.748, PBLUC_R_SQUARED 0.781, read-out: LUCIFERASE INFECTION ASSAY - IC50): 34.1 nM"
Cc1nc(NCCCCCc2n[nH]c(N)c2C#N)c2c(-c3ccccc3)csc2n1,7.48,"IC50 (HEPG2TOX_HILL_SLOPE 1.31, HEPG2TOX_R_SQUARED 0.867, PBLUC_HILL_SLOPE 3.24, PBLUC_R_SQUARED 0.486, read-out: LUCIFERASE INFECTION ASSAY - IC50): 3790 nM"
CCc1nnc(NC(=O)/C=C/c2cc(Cl)c(OC(C)C)c(OC)c2)s1,> 10,"IC50 (HEPG2TOX_HILL_SLOPE 1.31, HEPG2TOX_R_SQUARED 0.955, PBLUC_HILL_SLOPE 2.51, PBLUC_R_SQUARED 0.0872, read-out: LUCIFERASE INFECTION ASSAY - IC50): 6820 nM"
c1ccc(-c2cn3c(-c4ccc5ncccc5c4)cnc3cn2)cc1,2.41,"IC50 (HEPG2TOX_HILL_SLOPE 1.31, HEPG2TOX_R_SQUARED 0.967, PBLUC_HILL_SLOPE 1.9, PBLUC_R_SQUARED 0.856, read-out: LUCIFERASE INFECTION ASSAY - IC50): 759 nM"
O=c1cc(-c2ccccc2)[nH]c2cc(-c3ccccc3)nn12,> 11.5,"IC50 (HEPG2TOX_HILL_SLOPE 1.32, HEPG2TOX_R_SQUARED 0.936, PBLUC_HILL_SLOPE 1.62, PBLUC_R_SQUARED 0.566, read-out: LUCIFERASE INFECTION ASSAY - IC50): 3750 nM"
COc1ccc(C(=O)c2cc(C#N)c(N)n3c2nc2ccccc23)cc1,3.53,"IC50 (HEPG2TOX_HILL_SLOPE 1.32, HEPG2TOX_R_SQUARED 0.922, PBLUC_HILL_SLOPE 2.77, PBLUC_R_SQUARED 0.822, read-out: LUCIFERASE INFECTION ASSAY - IC50): 1600 nM"
Cn1ccc2cc(-c3cn4c(-c5ccccc5)cnc4cn3)ccc21,2.78,"IC50 (HEPG2TOX_HILL_SLOPE 1.3, HEPG2TOX_R_SQUARED 0.937, PBLUC_HILL_SLOPE 1.56, PBLUC_R_SQUARED 0.678, read-out: LUCIFERASE INFECTION ASSAY - IC50): 679 nM"
CCOC(=O)c1c(C)[nH]c(C(=O)C(C)OC(=O)CN2C(=O)C3CC=CCC3C2=O)c1C (configuration not stated),> 10,"IC50 (HEPG2TOX_HILL_SLOPE 1.33, HEPG2TOX_R_SQUARED 0.914, read-out: LUCIFERASE INFECTION ASSAY - IC50): > 10000 nM"
COc1ccc(CN2CCCN(C(=O)c3ccc(CSc4nc5ccccc5[nH]4)cc3)CC2)cc1,> 10,"IC50 (HEPG2TOX_HILL_SLOPE 1.31, HEPG2TOX_R_SQUARED 0.944, read-out: LUCIFERASE INFECTION ASSAY - IC50): > 10000 nM"
N#C/C(=N\Nc1ccc(Cl)cc1Cl)C(=O)c1ccc(Cl)cc1,1.16,"IC50 (HEPG2TOX_HILL_SLOPE 1.3, HEPG2TOX_R_SQUARED 0.915, PBLUC_HILL_SLOPE 13.3, PBLUC_R_SQUARED 0.668, read-out: LUCIFERASE INFECTION ASSAY - IC50): 987 nM"
C/C(=N\NC(=O)c1ccccc1)c1ccccc1O,> 13,"IC50 (HEPG2TOX_HILL_SLOPE 1.31, HEPG2TOX_R_SQUARED 0.966, PBLUC_HILL_SLOPE 10.4, PBLUC_R_SQUARED 0.464, read-out: LUCIFERASE INFECTION ASSAY - IC50): > 13000 nM"
Clc1ccc(CSCc2cc(SCc3ccc(Cl)cc3Cl)nc(-c3ccccn3)n2)cc1,0.781,"IC50 (HEPG2TOX_HILL_SLOPE 1.3, HEPG2TOX_R_SQUARED 0.951, PBLUC_HILL_SLOPE 11.6, PBLUC_R_SQUARED 0.668, read-out: LUCIFERASE INFECTION ASSAY - IC50): 646 nM"
Cc1cc(-c2cc(C(=O)Nc3nnc(C(F)(F)F)[nH]3)c3cnn(C(C)C)c3n2)c(C)s1,> 10,"IC50 (HEPG2TOX_HILL_SLOPE 1.32, HEPG2TOX_R_SQUARED 0.884, PBLUC_HILL_SLOPE 1.68, PBLUC_R_SQUARED 0.6, read-out: LUCIFERASE INFECTION ASSAY - IC50): 3790 nM"
